Data published in patent US11155561B2, “Substituted glutarimides as Btk inhibitors” (SHANGHAI MEIZER PHARMACEUTICALS CO., LTD., priority 2017, dated 2021).

system: SU-DHL-6 (human B cell lymphoma cells); assay: Inhibition of proliferation of SU-DHL-6 cells by CTG assay; assay type: cell-based; details: compound 10 μM, 72 hours
Protocol: (§1) Example 8 Testing the Inhibitory Effect of Formula Compounds on the Proliferation of DOHH2 Cells (Human B Cell Lymphoma Cells) and SU-DHL-6 (Human B Cell Lymphoma Cells) by CTG Assay
(§2) The […] was used to determine the inhibitory effect of the compounds on the proliferation of DOHH2 cells (available from ATCC) and SU-DHL-6 cells (available from ATCC) in vitro. Cells were cultured and compounds were prepared referring to Example 7. The cell plating density was 1×10^4 cells/well for DOHH2 cells, and 1.5×10^4 cells/well for SU-DHL-6 cells. The culture time after the administration was 72 hours. After that an appropriate amount of CTG reagent was added, the luminescence value was measured, and the inhibition rate was calculated.

Row | SMILES | inhibition at 10 µM [%]
1 | Nc1ncnc2c1c(-c1ccc(Oc3ccccc3)cc1)nn2C1CCCN(CCOCCOCCOCCNc2cccc3c2C(=O)N(C2CCC(=O)NC2=O)C3=O)C1 (stereo not drawn) [Compound 15] | 94

molecular target: T1, Btk (Homo sapiens, UniProt Q06187); assay: Inhibition activity of compounds on Btk by Caliper assay; assay type: biochemical; details: compound 100 nM, Btk kinase
Protocol: Example 5 Testing the Inhibition Activity of Compounds on Btk by Caliper Assay
The experimental steps were as follows:
Preparation of 1× kinase reaction buffer (50 mM HEPES, PH 7.5; 0.0015% Brij-35) and kinase reaction termination solution (100 mM HEPES, PH 7.5; 0.0015% Brij-35; 0.2% Coating Reagent; 50 mM EDTA);
Preparation of experimental samples: 100 μL of 5 μM sample solution (dissolved in 100% DMSO) was added to a 96-well plate to obtain a 50× sample solution. As a control, two wells were set containing only 100 μL of 100% DMSO on the same plate. One was served as a control without samples and the other was served as a control without enzymes. 10 μL of sample and 90 μL of 1× kinase reaction buffer were added to a 96-well plate as a transfer plate. The transfer plate was shaken for 10 minutes.
Preparation of the test plate: taking 5 μL each of the prepared samples in the 96-well transfer plate into a 384-well plate.
Kinase reaction: to 5 μL of 5× compound solution (dissolved in DMSO, diluted 10 times with water) was added 10 μL of 2.5× Btk kinase solution (kinase was diluted with 1× kinase reaction buffer), and incubated at room temperature for 10 min, then 10 μL of 2.5× substrate peptide solution (FAM-labeled peptide and ATP were diluted with 1× kinase reaction buffer) was added.
Termination of the kinase reaction: 25 μL of kinase termination solution was added after being reacted at 28° C. for a period of time.
The fluorescence (F) was tested on a Caliper and data was collected.
The inhibition rate of kinase activity was calculated: the percent inhibition rate of kinase activity=(FDMSO control−Fsample)/(FDMSO control−Fnegative control)×100, with DMSO as the solution control, and no kinase as the negative control.

T1 sequence (Q06187 whole entry): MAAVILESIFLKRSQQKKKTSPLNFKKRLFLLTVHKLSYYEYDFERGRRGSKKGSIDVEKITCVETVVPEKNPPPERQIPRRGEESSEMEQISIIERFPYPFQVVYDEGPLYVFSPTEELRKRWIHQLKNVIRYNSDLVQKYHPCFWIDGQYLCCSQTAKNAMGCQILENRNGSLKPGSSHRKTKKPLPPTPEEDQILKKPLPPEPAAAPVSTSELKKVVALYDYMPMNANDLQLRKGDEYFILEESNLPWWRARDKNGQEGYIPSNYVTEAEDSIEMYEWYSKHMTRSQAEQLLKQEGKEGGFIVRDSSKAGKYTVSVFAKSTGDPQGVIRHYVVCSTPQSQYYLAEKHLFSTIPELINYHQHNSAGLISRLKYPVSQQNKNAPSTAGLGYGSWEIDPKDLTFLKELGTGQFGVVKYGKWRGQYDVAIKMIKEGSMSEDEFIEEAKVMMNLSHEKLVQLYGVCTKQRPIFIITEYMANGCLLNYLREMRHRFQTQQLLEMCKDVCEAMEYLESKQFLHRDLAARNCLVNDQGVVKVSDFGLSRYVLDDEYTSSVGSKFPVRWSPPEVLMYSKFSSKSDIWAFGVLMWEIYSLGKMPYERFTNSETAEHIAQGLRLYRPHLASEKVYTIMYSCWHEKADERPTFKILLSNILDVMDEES

Row | SMILES | inhibition at 0.1 µM [%]
2 | Nc1ncnc2c1c(-c1ccc(Oc3ccccc3)cc1)nn2C1CCCN(CCOCCOCCOCCNc2cccc3c2C(=O)N(C2CCC(=O)NC2=O)C3=O)C1 (stereo not drawn) [Compound 15] | 98

molecular target: T1, Btk; assay: Btk protein degradation activity by Western blot in RPMI8226 cells; assay type: cell-based; set-up: degradation activity of the compound (10 μM) on Btk protein in RPMI8226 cells; endogenous in cells; host or cells: RPMI8226; key: “−” represents no degradation activity; “+” represents a degradation rate of 10%-30%; “++” represents a degradation rate of 30%-50%; “+++” represents a degradation rate of 50%-90%; “++++” means the degradation rate is greater than 90%; details: compound 10 μM, 24 hours
Protocol: Example 6 Testing the Btk Protein Degradation Activity of Compounds by Western Blot
Cell lines: RPMI8226 Cell line was cultured in RPMI1640 medium containing 10% calf serum in a 37° C., 5% CO2, and saturated humidity incubator.
DMSO control group and compound intervention group (10 μM) were set. Cells was collected after the treatment for 24 hours, then 100 μL of pre-chilled cell lysate was added and cells were lysed on ice for 30 minutes. Total cell protein was extracted, and protein concentration was determined and quantified by […] (BCA) method. After routine gelatinization, loading, electrophoresis, then transferring to membrane and blocking, rabbit anti-human Btk (1:500) was added, and incubated at 4° C. overnight. The mixture was rinsed and then horseradish peroxidase labeled goat anti-rabbit IgG (1:5000) was added. After the rinsing it was developed by the ECL developing solution, the Bio-Rad gel imaging system was used for scanning and imaging, and the computer software was used for analysis. […] (GAPDH) was used as an internal control.
Image J software was used to analyze the gray scale of each band to calculate the Btk protein degradation rate of the compound.

Row | SMILES | Degradation activity
3 | Nc1ncnc2c1c(-c1ccc(Oc3ccccc3)cc1)nn2C1CCCN(C(=O)/C=C/CCOCCOCCOCCOc2cccc3c2C(=O)N(C2CCC(=O)NC2=O)C3=O)C1 (stereo not drawn) [Compound 18] | +++ (“+++” represents a degradation rate of 50%-90%)
4 | Nc1ncnc2c1c(-c1ccc(Oc3ccccc3)cc1)nn2C1CCCN(CCOCCOCCOCCNc2cccc3c2C(=O)N(C2CCC(=O)NC2=O)C3=O)C1 (stereo not drawn) [Compound 15] | ++++ (“++++” means the degradation rate is greater than 90%)
5 | C=C(CCCOCCOCCNc1cccc2c1C(=O)N(C1CCC(=O)NC1=O)C2=O)C(=O)N1CCCC(n2nc(-c3ccc(Oc4ccccc4)cc3)c3c(N)ncnc32)C1 (stereo not drawn) [Compound 33] | ++++ (“++++” means the degradation rate is greater than 90%)
6 | Nc1ncnc2c1c(-c1ccc(Oc3ccccc3)cc1)nn2C1CCCN(C(=O)/C=C/CCCOCCOCCOCCNc2cccc3c2C(=O)N(C2CCC(=O)NC2=O)C3=O)C1 (stereo not drawn) [Compound 25] | ++++ (“++++” means the degradation rate is greater than 90%)
7 | C=C(CCOCCOCCOCCOCCOc1cccc2c1C(=O)N(C1CCC(=O)NC1=O)C2=O)C(=O)N1CCCC(n2nc(-c3ccc(Oc4ccccc4)cc3)c3c(N)ncnc32)C1 (stereo not drawn) [Compound 32] | +++ (“+++” represents a degradation rate of 50%-90%)
8 | Nc1ncnc2c1c(-c1ccc(Oc3ccccc3)cc1)nn2C1CCCN(C(=O)c2cn(CCOCCOCCOc3cccc4c3C(=O)N(C3CCC(=O)NC3=O)C4=O)nn2)C1 (stereo not drawn) [Compound 37] | ++++ (“++++” means the degradation rate is greater than 90%)
9 | Nc1ncnc2c1c(-c1ccc(Oc3ccccc3)cc1)nn2C1CCCN(C(=O)/C=C/CCOCCOCCOCCNc2cccc3c2C(=O)N(C2CCC(=O)NC2=O)C3=O)C1 (stereo not drawn) [Compound 24] | ++++ (“++++” means the degradation rate is greater than 90%)
10 | Nc1ncnc2c1c(-c1ccc(Oc3ccccc3)cc1)nn2C1CCN(CCOCCOCCOCCOc2cccc3c2C(=O)N(C2CCC(=O)NC2=O)C3=O)CC1 (stereo not drawn) [control compound, reference compound] | −
11 | Nc1ncnc2c1c(-c1ccc(Oc3ccccc3)cc1)nn2C1CCCN(C(=O)c2cn(CCOCCOCCOCCOc3cccc4c3C(=O)N(C3CCC(=O)NC3=O)C4=O)nn2)C1 (stereo not drawn) [Compound 39] | ++++ (“++++” means the degradation rate is greater than 90%)
12 | C=C(CCOCCOCCOc1cccc2c1C(=O)N(C1CCC(=O)NC1=O)C2=O)C(=O)N1CCCC(n2nc(-c3ccc(Oc4ccccc4)cc3)c3c(N)ncnc32)C1 (stereo not drawn) [Compound 30] | ++++ (“++++” means the degradation rate is greater than 90%)
13 | C=C(CCCOCCOCCOc1cccc2c1C(=O)N(C1CCC(=O)NC1=O)C2=O)C(=O)N1CCCC(n2nc(-c3ccc(Oc4ccccc4)cc3)c3c(N)ncnc32)C1 (stereo not drawn) [Compound 29] | ++++ (“++++” means the degradation rate is greater than 90%)
14 | Nc1ncnc2c1c(-c1ccc(Oc3ccccc3)cc1)nn2C1CCCN(C(=O)/C=C/CCOCCOCCOc2cccc3c2C(=O)N(C2CCC(=O)NC2=O)C3=O)C1 (stereo not drawn) [Compound 17] | +++ (“+++” represents a degradation rate of 50%-90%)
15 | Nc1ncnc2c1c(-c1ccc(Oc3ccccc3)cc1)nn2C1CCCN(C(=O)/C=C/CCCOCCOCCOCCOc2cccc3c2C(=O)N(C2CCC(=O)NC2=O)C3=O)C1 (stereo not drawn) [Compound 19] | +++ (“+++” represents a degradation rate of 50%-90%)
16 | C=C(CCOCCOCCNc1cccc2c1C(=O)N(C1CCC(=O)NC1=O)C2=O)C(=O)N1CCCC(n2nc(-c3ccc(Oc4ccccc4)cc3)c3c(N)ncnc32)C1 (stereo not drawn) [Compound 34] | ++++ (“++++” means the degradation rate is greater than 90%)
17 | Nc1ncnc2c1c(-c1ccc(Oc3ccccc3)cc1)nn2C1CCCN(C(=O)c2cn(CCOCCOCCOCCOCCOc3cccc4c3C(=O)N(C3CCC(=O)NC3=O)C4=O)nn2)C1 (stereo not drawn) [Compound 40] | +++ (“+++” represents a degradation rate of 50%-90%)
18 | Nc1ncnc2c1c(-c1ccc(Oc3ccccc3)cc1)nn2C1CCCN(C(=O)/C=C/COCCOCCOCCOCCOc2cccc3c2C(=O)N(C2CCC(=O)NC2=O)C3=O)C1 (stereo not drawn) [Compound 21] | +++ (“+++” represents a degradation rate of 50%-90%)
19 | Nc1ncnc2c1c(-c1ccc(Oc3ccccc3)cc1)nn2C1CCCN(C(=O)/C=C/CCOCCOCCOCCOCCNc2cccc3c2C(=O)N(C2CCC(=O)NC2=O)C3=O)C1 (stereo not drawn) [Compound 28] | +++ (“+++” represents a degradation rate of 50%-90%)
20 | C=C(CCOCCOCCOCCNc1cccc2c1C(=O)N(C1CCC(=O)NC1=O)C2=O)C(=O)N1CCCC(n2nc(-c3ccc(Oc4ccccc4)cc3)c3c(N)ncnc32)C1 (stereo not drawn) [Compound 35] | ++++ (“++++” means the degradation rate is greater than 90%)
21 | C=C(CCOCCOCCOCCOc1cccc2c1C(=O)N(C1CCC(=O)NC1=O)C2=O)C(=O)N1CCCC(n2nc(-c3ccc(Oc4ccccc4)cc3)c3c(N)ncnc32)C1 (stereo not drawn) [Compound 31] | ++++ (“++++” means the degradation rate is greater than 90%)
22 | Nc1ncnc2c1c(-c1ccc(Oc3ccccc3)cc1)nn2C1CCCN(C(=O)/C=C/CCOCCOCCNc2cccc3c2C(=O)N(C2CCC(=O)NC2=O)C3=O)C1 (stereo not drawn) [Compound 23] | ++++ (“++++” means the degradation rate is greater than 90%)
23 | C=C(CCOCCOCCOCCOCCNc1cccc2c1C(=O)N(C1CCC(=O)NC1=O)C2=O)C(=O)N1CCCC(n2nc(-c3ccc(Oc4ccccc4)cc3)c3c(N)ncnc32)C1 (stereo not drawn) [Compound 36] | +++ (“+++” represents a degradation rate of 50%-90%)
24 | Nc1ncnc2c1c(-c1ccc(Oc3ccccc3)cc1)nn2C1CCCN(C(=O)/C=C/CCOCCOCCOCCOCCOc2cccc3c2C(=O)N(C2CCC(=O)NC2=O)C3=O)C1 (stereo not drawn) [Compound 22] | +++ (“+++” represents a degradation rate of 50%-90%)
25 | Nc1ncnc2c1c(-c1ccc(Oc3ccccc3)cc1)nn2C1CCCN(C(=O)/C=C/CCCCOCCOCCOCCNc2cccc3c2C(=O)N(C2CCC(=O)NC2=O)C3=O)C1 (stereo not drawn) [Compound 26] | ++++ (“++++” means the degradation rate is greater than 90%)
26 | Nc1ncnc2c1c(-c1ccc(Oc3ccccc3)cc1)nn2C1CCCN(C(=O)/C=C/COCCOCCOCCOCCNc2cccc3c2C(=O)N(C2CCC(=O)NC2=O)C3=O)C1 (stereo not drawn) [Compound 27] | ++++ (“++++” means the degradation rate is greater than 90%)
27 | Nc1ncnc2c1c(-c1ccc(Oc3ccccc3)cc1)nn2C1CCCN(C(=O)c2cn(CCOCCOCCOCCNc3cccc4c3C(=O)N(C3CCC(=O)NC3=O)C4=O)nn2)C1 (stereo not drawn) [Compound 43] | ++++ (“++++” means the degradation rate is greater than 90%)
28 | Nc1ncnc2c1c(-c1ccc(Oc3ccccc3)cc1)nn2C1CCCN(C(=O)/C=C/CCCCOCCOCCOCCOc2cccc3c2C(=O)N(C2CCC(=O)NC2=O)C3=O)C1 (stereo not drawn) [Compound 20] | +++ (“+++” represents a degradation rate of 50%-90%)
29 | Nc1ncnc2c1c(-c1ccc(Oc3ccccc3)cc1)nn2C1CCCN(C(=O)c2cn(CCOCCOCCOCCOCCNc3cccc4c3C(=O)N(C3CCC(=O)NC3=O)C4=O)nn2)C1 (stereo not drawn) [Compound 44] | +++ (“+++” represents a degradation rate of 50%-90%)

system: DOHH2 cells (human B cell lymphoma cells); assay: Inhibition of proliferation of DOHH2 cells by CTG assay; assay type: cell-based; details: DOHH-2, compound 10 μM, 72 hours
Protocol: as §1, §2

Row | SMILES | inhibition at 10 µM [%]
30 | Nc1ncnc2c1c(-c1ccc(Oc3ccccc3)cc1)nn2C1CCCN(CCOCCOCCOCCNc2cccc3c2C(=O)N(C2CCC(=O)NC2=O)C3=O)C1 (stereo not drawn) [Compound 15] | 99
